Data as given in PubChem BioAssay (NCI).
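Interpolation was linear, between the two tested concentrations surrounding the appropriate level; five concentrations were tested over 48 hours in 96-well plates. Here, GI50 denotes the concentration required for 50% inhibition of growth. TGI marks complete inhibition of growth.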

Experiments:
Assay in all cases: NCI tumour cell line growth inhibition, 48 h
786-0 renal = system: 786-0 renal
A498 renal = system: A498 renal
A549 NSCLC = system: A549 NSCLC
ACHN renal = system: ACHN renal
CCRF-CEM leukemia = system: CCRF-CEM leukemia
COLO 205 colon = system: COLO 205 colon
EKVX NSCLC = system: EKVX NSCLC
HCC-2998 colon = system: HCC-2998 colon
HCT-116 colon = system: HCT-116 colon
HCT-15 colon = system: HCT-15 colon
HL-60(TB) leukemia = system: HL-60(TB) leukemia
HOP-62 NSCLC = system: HOP-62 NSCLC
HOP-92 NSCLC = system: HOP-92 NSCLC
IGROV1 ovarian = system: IGROV1 ovarian
K-562 leukemia = system: K-562 leukemia
KM12 colon = system: KM12 colon
M14 melanoma = system: M14 melanoma
MALME-3M melanoma = system: MALME-3M melanoma
MCF7 breast = system: MCF7 breast
MDA-MB-435 = system: MDA-MB-435
MDA-N = system: MDA-N
MOLT-4 leukemia = system: MOLT-4 leukemia
NCI-H226 lung = system: NCI-H226 lung
NCI-H23 lung = system: NCI-H23 lung
NCI-H460 lung = system: NCI-H460 lung
NCI-H522 lung = system: NCI-H522 lung
PC-3 prostate = system: PC-3 prostate
RPMI-8226 leukemia = system: RPMI-8226 leukemia
RXF 393 renal = system: RXF 393 renal
SF-268 CNS = system: SF-268 CNS
SF-539 CNS = system: SF-539 CNS
SK-MEL-2 melanoma = system: SK-MEL-2 melanoma
SK-MEL-5 melanoma = system: SK-MEL-5 melanoma
SK-OV-3 ovarian = system: SK-OV-3 ovarian
SN12C renal = system: SN12C renal
SNB-19 CNS = system: SNB-19 CNS
SNB-75 CNS = system: SNB-75 CNS
SR leukemia = system: SR leukemia
SW-620 colon = system: SW-620 colon
T-47D breast = system: T-47D breast
U251 CNS = system: U251 CNS
UACC-257 melanoma = system: UACC-257 melanoma
UACC-62 melanoma = system: UACC-62 melanoma
BT-549 breast = system: BT-549 breast
CAKI-1 renal = system: CAKI-1 renal
DU-145 prostate = system: DU-145 prostate
HS 578T breast = system: HS 578T breast
HT29 colon = system: HT29 colon
LOX IMVI melanoma = system: LOX IMVI melanoma
MDA-MB-231 breast = system: MDA-MB-231 breast
NCI/ADR-RES ovarian = system: NCI/ADR-RES ovarian
OVCAR-3 ovarian = system: OVCAR-3 ovarian
OVCAR-4 ovarian = system: OVCAR-4 ovarian
OVCAR-5 ovarian = system: OVCAR-5 ovarian
OVCAR-8 ovarian = system: OVCAR-8 ovarian
SF-295 CNS = system: SF-295 CNS
SK-MEL-28 melanoma = system: SK-MEL-28 melanoma
TK-10 renal = system: TK-10 renal
UO-31 renal = system: UO-31 renal

O=c1[nH]nc(-c2ccccc2)c2[nH]c3c4ccccc4ccc3c12
TGI (786-0 renal): 48.1 µM | TGI (A498 renal): > 100 µM | TGI (A549 NSCLC): > 100 µM | TGI (ACHN renal): > 100 µM | TGI (CCRF-CEM leukemia): > 100 µM | TGI (COLO 205 colon): > 100 µM | TGI (EKVX NSCLC): > 100 µM | TGI (HCC-2998 colon): 4.81 µM | TGI (HCT-116 colon): > 100 µM | TGI (HCT-15 colon): > 100 µM | TGI (HL-60(TB) leukemia): > 100 µM | TGI (HOP-62 NSCLC): > 100 µM | TGI (HOP-92 NSCLC): > 100 µM | TGI (IGROV1 ovarian): > 100 µM | TGI (K-562 leukemia): > 100 µM | TGI (KM12 colon): > 100 µM | TGI (M14 melanoma): > 100 µM | TGI (MALME-3M melanoma): > 100 µM | TGI (MCF7 breast): > 100 µM | TGI (MDA-MB-435): 673 nM | TGI (MDA-N): 545 nM | TGI (MOLT-4 leukemia): > 100 µM | TGI (NCI-H226 lung): > 100 µM | TGI (NCI-H23 lung): 32.7 µM | TGI (NCI-H460 lung): > 100 µM | TGI (NCI-H522 lung): > 100 µM | TGI (PC-3 prostate): > 100 µM | TGI (RPMI-8226 leukemia): 3.57 µM | TGI (RXF 393 renal): > 100 µM | TGI (SF-268 CNS): > 100 µM | TGI (SF-539 CNS): 3.17 µM | TGI (SK-MEL-2 melanoma): > 100 µM | TGI (SK-MEL-5 melanoma): > 100 µM | TGI (SK-OV-3 ovarian): > 100 µM | TGI (SN12C renal): > 100 µM | TGI (SNB-19 CNS): > 100 µM | TGI (SNB-75 CNS): > 100 µM | TGI (SR leukemia): > 100 µM | TGI (SW-620 colon): > 100 µM | TGI (T-47D breast): > 100 µM | TGI (U251 CNS): > 100 µM | TGI (UACC-257 melanoma): > 100 µM | TGI (UACC-62 melanoma): > 100 µM

NS(=O)(=O)c1ccc(N=Nc2c(O)[nH]c3ccc(-c4cnco4)cc23)cc1
GI50 (786-0 renal): > 25 µM | TGI (786-0 renal): > 25 µM | GI50 (A498 renal): > 25 µM | TGI (A498 renal): > 25 µM | GI50 (A549 NSCLC): > 25 µM | TGI (A549 NSCLC): > 25 µM | GI50 (ACHN renal): 17.7 µM | TGI (ACHN renal): > 25 µM | GI50 (BT-549 breast): 18 µM | TGI (BT-549 breast): > 25 µM | GI50 (CAKI-1 renal): > 25 µM | TGI (CAKI-1 renal): > 25 µM | GI50 (CCRF-CEM leukemia): 14.4 µM | TGI (CCRF-CEM leukemia): > 25 µM | GI50 (COLO 205 colon): > 25 µM | TGI (COLO 205 colon): > 25 µM | GI50 (DU-145 prostate): 24.4 µM | TGI (DU-145 prostate): > 25 µM | GI50 (EKVX NSCLC): > 25 µM | TGI (EKVX NSCLC): > 25 µM | GI50 (HCC-2998 colon): > 25 µM | TGI (HCC-2998 colon): > 25 µM | GI50 (HCT-116 colon): 6.97 µM | TGI (HCT-116 colon): > 25 µM | GI50 (HCT-15 colon): > 25 µM | TGI (HCT-15 colon): > 25 µM | GI50 (HL-60(TB) leukemia): > 25 µM | TGI (HL-60(TB) leukemia): > 25 µM | GI50 (HOP-62 NSCLC): > 25 µM | TGI (HOP-62 NSCLC): > 25 µM | GI50 (HOP-92 NSCLC): > 25 µM | TGI (HOP-92 NSCLC): > 25 µM | GI50 (HS 578T breast): > 25 µM | TGI (HS 578T breast): > 25 µM | GI50 (HT29 colon): > 25 µM | TGI (HT29 colon): > 25 µM | GI50 (IGROV1 ovarian): > 25 µM | TGI (IGROV1 ovarian): > 25 µM | GI50 (K-562 leukemia): > 25 µM | TGI (K-562 leukemia): > 25 µM | GI50 (KM12 colon): 6.86 µM | TGI (KM12 colon): > 23.9 µM | GI50 (LOX IMVI melanoma): 22.8 µM | TGI (LOX IMVI melanoma): > 25 µM | GI50 (M14 melanoma): > 25 µM | TGI (M14 melanoma): > 25 µM | GI50 (MALME-3M melanoma): > 25 µM | TGI (MALME-3M melanoma): > 25 µM | GI50 (MCF7 breast): 11.8 µM | TGI (MCF7 breast): > 25 µM | GI50 (MDA-MB-231 breast): > 25 µM | TGI (MDA-MB-231 breast): > 25 µM | GI50 (MDA-MB-435): > 25 µM | TGI (MDA-MB-435): > 25000 nM | GI50 (MOLT-4 leukemia): > 25 µM | TGI (MOLT-4 leukemia): > 25 µM | GI50 (NCI-H226 lung): > 25 µM | TGI (NCI-H226 lung): > 25 µM | GI50 (NCI-H23 lung): > 25 µM | TGI (NCI-H23 lung): > 25 µM | GI50 (NCI-H460 lung): 14.3 µM | TGI (NCI-H460 lung): > 25 µM | GI50 (NCI-H522 lung): > 6.68 µM | TGI (NCI-H522 lung): > 25 µM | GI50 (NCI/ADR-RES ovarian): > 25 µM | TGI (NCI/ADR-RES ovarian): > 25 µM | GI50 (OVCAR-3 ovarian): > 25 µM | TGI (OVCAR-3 ovarian): > 25 µM | GI50 (OVCAR-4 ovarian): > 25 µM | TGI (OVCAR-4 ovarian): > 25 µM | GI50 (OVCAR-5 ovarian): > 25 µM | TGI (OVCAR-5 ovarian): > 25 µM | GI50 (OVCAR-8 ovarian): > 19.2 µM | TGI (OVCAR-8 ovarian): > 25 µM | GI50 (PC-3 prostate): > 25 µM | TGI (PC-3 prostate): > 25 µM | GI50 (RPMI-8226 leukemia): > 25 µM | TGI (RPMI-8226 leukemia): > 25 µM | GI50 (RXF 393 renal): > 19.6 µM | TGI (RXF 393 renal): > 25 µM | GI50 (SF-268 CNS): > 25 µM | TGI (SF-268 CNS): > 25 µM | GI50 (SF-295 CNS): > 25 µM | TGI (SF-295 CNS): > 25 µM | GI50 (SF-539 CNS): > 25 µM | TGI (SF-539 CNS): > 25 µM | GI50 (SK-MEL-2 melanoma): > 25 µM | TGI (SK-MEL-2 melanoma): > 25 µM | GI50 (SK-MEL-28 melanoma): > 25 µM | TGI (SK-MEL-28 melanoma): > 25 µM | GI50 (SK-MEL-5 melanoma): > 25 µM | TGI (SK-MEL-5 melanoma): > 25 µM | GI50 (SK-OV-3 ovarian): > 25 µM | TGI (SK-OV-3 ovarian): > 25 µM | GI50 (SN12C renal): > 25 µM | TGI (SN12C renal): > 25 µM | GI50 (SNB-19 CNS): > 25 µM | TGI (SNB-19 CNS): > 25 µM | GI50 (SNB-75 CNS): 10.1 µM | TGI (SNB-75 CNS): > 25 µM | GI50 (SR leukemia): 4.99 µM | TGI (SR leukemia): > 25 µM | GI50 (SW-620 colon): 9.91 µM | TGI (SW-620 colon): > 25 µM | GI50 (T-47D breast): > 25 µM | TGI (T-47D breast): > 25 µM | GI50 (TK-10 renal): > 25 µM | TGI (TK-10 renal): > 25 µM | GI50 (U251 CNS): > 25 µM | TGI (U251 CNS): > 25 µM | GI50 (UACC-257 melanoma): > 25 µM | TGI (UACC-257 melanoma): > 25 µM | GI50 (UACC-62 melanoma): > 25 µM | TGI (UACC-62 melanoma): > 25 µM | GI50 (UO-31 renal): > 25 µM | TGI (UO-31 renal): > 25 µM
